“Also recorded” adds a separate entry of the source. Values belong to the molecule of their own block, whether it stands above or below them.
Tests used:
Type in all cases: cell-based, porcine
[1] = system: pgEpiSCs; experiment: RT-qPCR of marker genes in pgEpiSCs in modified 3i/LAF medium; conditions: for marker gene mRNA expression after removal of the component: component removed from 3i/LAF medium, qRT-PCR
Experimental: Total RNA of pgEpiSCs was extracted using a RNAprep Pure Cell/Bacteria Kit (TIANGEN, DP430), and then reverse transcribed into cDNA using 5× all-in-one RT premix (Abm, G490). PCR was performed using 2× RealStar Green Power Mixture (GenStar, A311-05) on the LightCycler 480 II real-time system (Roche). Comparative CT (2^−ΔΔCT) method was used to analyze the data. ACT was calculated using EF1A as an internal control. Three biological replicates were performed for all experiments. Primers for quantitative real-time PCR were listed in the key resource table.
(§1) Based on the prepared 3i/LAF medium and its culture method in2 above, the requirement of various factors for long-term maintenance in vitro of pgEpiSCs was test by the inventors under the same conditions as in 2 above, except for removing small molecule inhibitors and cytokines from the medium one by one.
(§2) In addition, based on the prepared 3i/LAF medium and its culture method in 2 above, the following tests were also performed by the inventors under the same conditions as in 2 above.

[2] = system: pgEpiSCs; experiment: Clone morphology and alkaline phosphatase (AP) staining of pgEpiSCs in modified 3i/LAF medium; conditions: for clone morphology / AP staining after removal of the component: component removed from 3i/LAF medium
From the text: The alkaline phosphatase staining for pgEpiSCs was based on the Alkaline Phosphatase Detection Kit (Millipore, SCR004).
The specific experimental steps followed the instructions for the kit.
as §1, §2
According to the 3i/LAF medium and its culture method prepared in 2 above, the inventors also investigated the effect of the adjusted or replaced medium on the long-term in vitro maintenance of pgEpiSCs on the basis of adjusting the concentrations of the small molecule inhibitors and cytokines or replacing the compositions of the small molecule inhibitors and cytokines in the culture medium one by one without altering the other conditions.
Experimental method: pgEpiSCs were cultured with the adjusted medium, after which AP staining was performed on the cultured pgEpiSCs of P1 (indicating the pgEpiSCs after 1 passage in the adjusted medium) or P3 (indicating the pgEpiSCs after 3 passages in the adjusted medium). The specific steps of AP staining are described in the section of Experimental Methods described previously.
Principle of the experiment: undifferentiated stem cells will express Ap at high level. By staining fixed stem cells, differentiated cells show no color and undifferentiated cells show purple or red color.

[3] = system: pgEpiSCs; experiment: Immunofluorescence of POU5F1 and EOMES in pgEpiSCs in modified 3i/LAF medium; conditions: component removed from 3i/LAF medium
Experimental: Cells were washed with DPBS (Gibco, C14190500BT) and fixed with 4% paraformaldehyde at room temperature for 30 minutes, then washed again with DPBS, permeabilized in 0.1% Triton X-100 for 20 minutes, and blocked with 3% BSA for 1 hour. Cells were incubated with the primary antibody diluted with 3% BSA overnight at 4° C. Cells were then washed 3 times with the washing buffer (DPBS containing 0.1% Triton X-100 and 0.1% Tween 20) for 3 minutes each time. Cells were incubated with diluted secondary antibody and washing buffer together at room temperature for 1 hour, then washed 3 times with the washing buffer for 5 minutes, followed by nuclear staining with DAPI (Roche Life Science, 10236276001) for 3 minutes.
as §1

[4] = system: pgEpiSCs; experiment: Proliferation and passage of pgEpiSCs with FGF2 removed or varied; conditions: for proliferation and passage of pgEpiSCs: FGF2 removed, with addition of PD0325901
Experimental: Porcine EpiSCs were cultured in 12-well plates. Cell samples were seeded in triplicate at a density of 2×10^4 cells per well. Cells were counted every 12 hours. Cells were digested and counted using the Luna™ automated cell counter at each time point. The results of the three counts were averaged and plotted. The cell doubling time was calculated as follows: Doubling Time (DT)=24×[lg2/(lgNt−IgN0)], where 24 was the cell culture time (hours); Nt was the number of cells cultured for 48 hours; and No was the number of cells recorded at 24 hours.
as §1

[5] = system: phosphorylated STAT3; experiment: Western blot of phosphorylated STAT3 in pgEpiSCs; conditions: with or without LIF; Western blotting
Experimental: Total proteins in cells were extracted using cell lysis buffer (Beyotime Biotechnology, P0013), and nuclear and cytoplasmic proteins were extracted using a cell nucleus and cytoplasmic protein extraction kit (Beyotime Biotechnology, P0027) supplemented with protease and phosphatase inhibitors (P1050). The concentration of extracted proteins was measured using a Bradford protein detection kit (Bio-red, 5000201). An equal amount of proteins (15 μg) were separated by SDS-PAGE gel electrophoresis, and then transferred from the gel to the Immobilon-P transfer membrane (Merck Millipore; pore size: 0.45 μm; IPVH00010). The blots were blocked in 5% skim milk powder (Sangon Biotech, A600669-0250) in TBST (20 mM Tris, pH 7.5; 150 mM NaCl; 0.1% Tween 20) at room temperature for 1 hour, and then incubated with the antibody diluted in 5% skim milk powder in TBST at 4° C. overnight. The next day, the blots were rinsed 3 times with TBST for 5 minutes each time, and then incubated with HRP conjugated secondary antibody diluted in 5% skim milk powder in TBST at room temperature for 1 hour, and finally rinsed 3 times with TBST for 5 minutes each time. The blots were developed using SuperSignal® West Dura Extended Duration Substrate (Thermo Fisher Scientific, 34075), followed by analysis of the band strength of the target protein using the CLINX chemiluminescence software. […]

[6] = IWR-1-endo replaced in 3i/LAF medium

Molecule: Cc1c[nH]c(-c2cnc(NCCNc3ccc(C#N)cn3)nc2-c2ccc(Cl)cc2Cl)n1 [CHIR99021]
marker gene mRNA expression after removal of the component [1]: downregulated the expression of cell proliferation related genes such as LIN28A, C-MYC, ETV4 and ETV5
expression of POU5F1 and GATA6 at high concentration ([1]; high concentration of CHIR99021 in 3i/LAF medium): downregulation of the pluripotency marker POU5F1 and significant upregulation of the endodermal marker GATA6; also recorded: the expression of the pluripotency gene POU5F1 was reduced, and the expression of the lineage differentiation gene GATA6 was upregulated, presenting a heterogeneous expression pattern
expression levels of TBX3 and ESRRB ([1]; increasing concentration of CHIR99021 in 3i/LAF medium): increased with increasing concentration

clone morphology / AP staining after removal of the component [2]: unclear boundaries of pgEpiSC clones
Molecule: O=C(Nc1cccc2cccnc12)c1ccc(N2C(=O)[C@@H]3[C@H](C2=O)[C@@H]2C=C[C@H]3C2)cc1 [IWR-1-endo]
marker gene mRNA expression after removal of the component [1]: significant downregulation of core pluripotency factors such as NANOG, POU5F1, SOX2 and REX1; also recorded: upregulation of the gastrulation formation marker genes BMP2, BMP4, EOMES and T
POU5F1 and EOMES immunostaining after removal of the component [3]: reduced or heterogeneous accumulation of the pluripotency factor POU5F1, while promoting the expression of the mesoderm and endoderm progenitor cell marker EOMES

Molecule: O=C(NOC[C@H](O)CO)c1ccc(F)c(F)c1Nc1ccc(I)cc1F [PD0325901]
proliferation and passage of pgEpiSCs [4]: could not proliferate or passage normally

clone morphology after addition of the inhibitor ([2]; inhibitor added to the medium): irregular clone morphology
Molecule: NC(=O)c1ccc(-c2nc(-c3ccc4c(c3)OCO4)c(-c3ccccn3)[nH]2)cc1 [SB431542]
BMP4 and BMP downstream transcription factors ID2, ID3 after addition of the inhibitor ([1]; inhibitor added to the medium): significant increase in BMP4 and BMP downstream transcription factors (such as ID2 and ID3)
NANOG levels after addition of the inhibitor ([1]; inhibitor added to the medium): significant decline in NANOG levels
pluripotency markers POU5F1 and REX1 after addition of the inhibitor ([1]; inhibitor added to the medium): significant decrease in pluripotency markers (such as POU5F1 and REX1)

Molecule: COc1ccc(N(C(=O)Oc2c(C)cccc2C)c2ccnc(Nc3ccc(N4CCN(C)CC4)cc3)n2)c(OC)c1 [WH-4-023]
marker gene mRNA expression after removal of the component [1]: upregulation of the gastrulation formation marker genes BMP2, BMP4, EOMES and T
POU5F1 and EOMES immunostaining after removal of the component [3]: reduced or heterogeneous accumulation of the pluripotency factor POU5F1, while promoting the expression of the mesoderm and endoderm progenitor cell marker EOMES

Molecule: Oc1nc(-c2ccc(C(F)(F)F)cc2)nc2c1CSCC2 [XAV939]
maintenance of pluripotency after replacing IWR-1-endo [2, 6]: unable to maintain pluripotency for a long time
passages until AP positivity was lost [2, 6]: around 8 passages
expression of core pluripotency factor OCT4 (POU5F1) [1, 6]: downregulated
expression of pluripotency factors REX1, STELLA, and ESRRB [1, 6]: downregulated

Molecule: FGF2: fibroblast growth factor; recombinant human FGF-basic, Peprotech 100-18B
proliferation and passage of pgEpiSCs [4]: could not proliferate or passage normally
proliferation of pgEpiSCs at high concentration ([4]; high concentration of FGF2): cells proliferated faster at the high concentration
proliferation ability of pgEpiSCs at reduced concentration ([4]; reduced concentration of FGF2, otherwise unchanged conditions): significantly reduced the proliferation ability of pgEpiSCs

Molecule: LIF: cytokine of 3i/LAF; recombinant human LIF, PeproTech 300-05
clone morphology / AP staining after removal of the component [2]: not a necessary condition for maintaining the morphology of pgEpiSC clones
detection of phosphorylated STAT3 [5]: phosphorylated STAT3 could only be detected in the presence of LIF

B1: Activin A: a member of the TGF-β superfamily; recombinant human Activin A, Peprotech 120-14E (protein, UniProt P08476 311-426, looked up)
Inhibin beta A chain: GLECDGKVNICCKKQFFVSFKDIGWNDWIIAPSGYHANYCEGECPSHIAGTSGSSLSFHSTVINHYRMRGHSPFANLKSCCVPTKLRPMSMLYYDDGQNIIKKDIQNMIVEECGCS
modifications: Inhibin beta A chain recombinant homodimer
marker gene mRNA expression after removal of the component [1]: reduced levels of the pluripotency marker NANOG

Reference: patent publication US20240400980A1, “PORCINE PLURIPOTENT STEM CELL CULTURE MEDIUM AND USE THEREOF” (CHINA AGRICULTURAL UNIVERSITY, priority 2021, published 2024)
